Assay results reported in patent US11911442B2, “Use of soluble pro(renin) receptor to treat metabolic disorders and related conditions” (priority 2017, dated 2024).

How the values were obtained:
mouse model of NDI = assay: Mouse model of NDI induced with V2R antagonist OPC; assay type: in vivo
Source text: Mice were placed in metabolic cages for assessment of daily water intake and urine output. (A) daily water intake (n=4 mice per group). (B) Daily urine output (n=4 mice per group). (C) Urine osmolality (n=4 mice per group). (D) Urinary sPRR excretion (n=4 mice per group). Data are shown as mean±SE. In A-C, #P<0.05 vs. OPC alone; in D*P<0.05 vs. control. (E) Schematic illustration of the mechanism of action of sPRR. In the lumen of the distal nephron, sPRR binds FZD8 in a receptor complex on the apical membrane of principal cells, resulting in the activation of β-catenin, which promotes cAMP accumulation, ultimately leading to increased AQP2 transcription and enhanced urine concentration.
In support of this notion, it has been shown that exposure of the CD cells to AVP stimulates the release of sPRR. FIG. 8E provides a schematic illustration of the mechanism of action of sPRR in the CD principal cells.
Urinary or medium sPRR was determined using a commercially sPRR enzyme immunoassay (EIA) kit (catalog no. JP27782; Immuno-Biological Laboratories) according to the manufacturer's instructions.

AQP2 = AQP2 expression in primary rat IMCD cells (quantitative RT-PCR, immunoblotting); assay type: cell-based; settings: inhibitor 10 μM pretreatment 1 h, then 10 nM sPRR-His 24 h
Wnt/β-catenin pathway = assay: Acute and chronic responses to AVP (cAMP, AQP2) in primary rat IMCD cells; assay type: cell-based; settings: XAV pretreatment 1 h
Experimental: FIGS. 5A-5F show a distinct role of the Wnt/β-catenin pathway in the acute and chronic responses to AVP in primary rat IMCD cells. The IMCD cells were pretreated for 1 h with XAV and were treated for 30 min or 24 h with 10 nM AVP. (A) At 30 min of AVP treatment, the medium was assayed for cAMP using ELISA (n=6 per group). (B and C) Membrane fraction (n=6 per group) (B) and cytosolic fraction (n=6 per group) (C) were subjected to immunoblotting analysis of AQP2. (D-F) At 24 h, medium cAMP was determined (n=6 per group) (D), whole-cell lysates were subjected to immunoblotting analysis of AQP2 (n=6 per group) (E), and total RNA was subjected to quantitative RT-PCR analysis of AQP2 mRNA (n=4 per group) (F). Data are shown as mean±SE; *P<0.05 vs. control; #P<0.05 vs. AVP alone.
For sPRR signaling studies, primary IMCD cells were prepared from 4-wk-old SD rats as previously described (35). The cells were grown in Transwell plates (catalog no. 29442-074; VWR International) with DMEM/F-12 medium containing 10% (vol/vol) FBS, 0.5 μM 8-Br-cAMP, 130 mM NaCl, and 80 mM urea. […] At the end of the experiments, the medium was collected for biochemical assays.
The membrane and cytosolic fractions of proteins were extracted using a kit according to the manufacturer's instructions (catalog no. BSP002; Bio Basic Inc.).

Sprague-Dawley (SD) rats = assay: Water balance and renal AQP2 in SD rats, basal and water deprivation; assay type: in vivo, rat
Experimental: FIGS. 6A-6H show a role of the Wnt/β-catenin pathway in urine-concentrating capability in rats. SD Rats were administered vehicle, OMP, or XAV and were placed in metabolic cages for assessment of the state of water metabolism at basal condition (A-C) or after 24-h WD (D-H) (n=5 rats per group). At basal the condition, water intake (A), urine volume (B), and urine osmolality (C) were determined. (D-F) During 24-h WD, urine volume (D), urine osmolality (E), and body-weight (BW) changes (F) were monitored. (G and H) At the end of the experiment plasma osmolality (G) and Hct (H) were measured. *P<0.05 vs. control; #P<0.05 vs. WD alone.
FIGS. 7A-7F show an in vivo role of the Wnt/β-catenin pathway in the regulation of renal AQP2 expression during antidiuresis in rats. (A and B) To assess renal β-catenin activation by WD, the nuclear fraction of renal cortex (n=4 rats per group) (A) and the inner medulla (n=4 rats per group) (B) from control and dehydrated rats were subjected to immunoblotting analysis of β-catenin. (C-F) Immunoblotting analysis of AQP2 expression was performed on the renal cortex and the inner medulla of rats treated with vehicle or WD with (C) or without (D) OMP or with (E) or without (F) XAV (n=5 rats per group). Data are shown as mean±SE; *P<0.05 vs. control; #P<0.05 vs. WD. CO, cortex; IM, inner medulla.
To probe the in vivo role of β-catenin signaling in fluid homeostasis, OMP and XAV were administered to Sprague-Dawley (SD) rats under basal conditions and during […] water deprivation (WD) and evaluated their impact on water balance.
Renal tissues were lysed and subsequently sonicated. Protein concentrations were determined using Coomassie reagent. Forty micrograms of protein from each sample were denatured in boiling water, separated by SDS/PAGE, and transferred onto nitrocellulose membranes. Blots were blocked 1 h with 5% nonfat dry milk in Tris-buffered saline (TBS), followed by overnight incubation with primary antibody. After washing with TBS, blots were incubated with goat anti-rabbit/mouse HRP-conjugated secondary antibody and visualized using ECL. The blots were quantitated by using Image-Pro Plus (Media Cybernetics). The primary antibodies were goat anti-AQP2 antibody, rabbit anti-PRR-N antibody, and rabbit anti-FZD8 antibody (all from Santa Cruz), rabbit anti-V2R antibody (Abcam), and goat anti-β-catenin antibody (Novus).

| SMILES | water intake, urine output, urine osmolality (mouse model of NDI; C57/BL6 mice, OPC via gavage 30 mg·kg^−1·d^−1 for 3 d) | urinary sPRR excretion (mouse model of NDI; OPC-treated mice) | sPRR-His-induced AQP2 protein expression, effect of inhibitor (AQP2) | rapid rise of cAMP and redistribution of AQP2 from the cytosol to the membrane in response to AVP (Wnt/β-catenin pathway; 30-min exposure to 10 nM AVP) | AVP-induced increases in cAMP level, total protein abundance and mRNA expression of AQP2 (Wnt/β-catenin pathway; 24 h 10 nM AVP) | WD-induced increase of AQP2 protein abundance in renal cortex and inner medulla (Sprague-Dawley (SD) rats; WD, immunoblotting) | water balance (urine volume, water intake, urine osmolality) (Sprague-Dawley (SD) rats; basal conditions, administration over 48 h) | plasma osmolality and hematocrit (Hct) (Sprague-Dawley (SD) rats; during 48-h WD) | urine osmolality (Sprague-Dawley (SD) rats; during 48-h WD) | urine volume (Sprague-Dawley (SD) rats; during 48-h WD) | weight loss (Sprague-Dawley (SD) rats; during 48-h WD) |
| --- | --- | --- | --- | --- | --- | --- | --- | --- | --- | --- | --- |
| Cc1ccccc1C(=O)Nc1ccc(C(=O)N2CCCC(N(C)C)c3ccccc32)cc1 (centres unmarked) [OPC] | polydipsia, polyuria, and hypoosmotic urine | suppressed significantly |  |  |  |  |  |  |  |  |  |
| Oc1nc(-c2ccc(C(F)(F)F)cc2)nc2c1CSCC2 [XAV939] |  |  | blunted | unaffected | effectively attenuated | attenuated significantly | polyuria, polydipsia, and hypoosmotic urine | greater increases | decreased | increased | exaggerated |
